Data: PubChem BioAssay AID1259407 (Chemical Carcinogenesis Research Information System (CCRIS), 2018)
The source made the active and inactive calls. How the calls were made is not given here.

Test system: CCRIS mutagenicity, Ames/micronucleus/aberration tests
Assay: CCRIS mutagenicity studies
[1] = Test System: AMES SALMONELLA TYPHIMURIUM, Strain/Indicator: TA98, Metabolic Activation: NONE, Method: STANDARD PLATE
[2] = Test System: AMES SALMONELLA TYPHIMURIUM, Strain/Indicator: TA100, Metabolic Activation: NONE, Method: STANDARD PLATE

CCN(CC)c1ccc(N=Nc2c(Cl)cc([N+](=O)[O-])cc2Cl)cc1
mutagenic call [1]: active; positive
mutagenic call (Test System: AMES SALMONELLA TYPHIMURIUM, Strain/Indicator: TA98, Metabolic Activation: RAT, LIVER, S-9, AROCLOR 1254, Method: STANDARD PLATE): active; positive
mutagenic call [2]: inactive; negative
mutagenic call (Test System: AMES SALMONELLA TYPHIMURIUM, Strain/Indicator: TA100, Metabolic Activation: RAT, LIVER, S-9, AROCLOR 1254, Method: STANDARD PLATE): inactive; negative
mutagenic call (Test System: AMES SALMONELLA TYPHIMURIUM, Strain/Indicator: TA1535, Metabolic Activation: NONE, Method: STANDARD PLATE): inactive; negative
mutagenic call (Test System: AMES SALMONELLA TYPHIMURIUM, Strain/Indicator: TA1535, Metabolic Activation: RAT, LIVER, S-9, AROCLOR 1254, Method: STANDARD PLATE): inactive; negative
mutagenic call (Test System: AMES SALMONELLA TYPHIMURIUM, Strain/Indicator: TA1537, Metabolic Activation: NONE, Method: STANDARD PLATE): inactive; negative
mutagenic call (Test System: AMES SALMONELLA TYPHIMURIUM, Strain/Indicator: TA1537, Metabolic Activation: RAT, LIVER, S-9, AROCLOR 1254, Method: STANDARD PLATE): inactive; negative
mutagenic call (Test System: CHINESE HAMSTER OVARY, Strain/Indicator: CHO (HGPRT)/6-THIOGUANINE, Metabolic Activation: NONE): inactive; negative
mutagenic call (Test System: CHINESE HAMSTER OVARY, Strain/Indicator: CHO (HGPRT)/6-THIOGUANINE, Metabolic Activation: RAT, LIVER, S-9, AROCLOR 1254): inactive; negative
mutagenic call (Test System: UDS RAT HEPATOCYTES, Strain/Indicator: THY INCORP, Metabolic Activation: NONE, Method: AUTORADIOGRAPHY): inactive; negative

CC(O)CC(=O)Nc1ccc(O)cc1 (stereo unspecified)
mutagenic call (Test System: AMES SALMONELLA TYPHIMURIUM, Strain/Indicator: TA100, Metabolic Activation: HAMSTER, LIVER, S-9, KANECHLOR 400, Method: PREINCUBATION): inactive; negative
mutagenic call (Test System: AMES SALMONELLA TYPHIMURIUM, Strain/Indicator: TA100, Metabolic Activation: NONE, Method: PREINCUBATION): inactive; negative

CC(=O)NNc1ccc(CO)cc1
mutagenic call (Test System: AMES SALMONELLA TYPHIMURIUM, Strain/Indicator: TA104, Metabolic Activation: MUSHROOM TYROSINASE, Method: PREINCUBATION): active; positive
mutagenic call (Test System: AMES SALMONELLA TYPHIMURIUM, Strain/Indicator: TA104, Metabolic Activation: NONE, Method: PREINCUBATION): inactive; negative
mutagenic call (Test System: AMES SALMONELLA TYPHIMURIUM, Strain/Indicator: TA104, Metabolic Activation: RAT, LIVER, CYTOSOL AND MICROSOMES, AROCLOR 1254, NADPH, Method: PREINCUBATION): active; positive
mutagenic call (Test System: AMES SALMONELLA TYPHIMURIUM, Strain/Indicator: TA104, Metabolic Activation: RAT, LIVER, CYTOSOL AND MICROSOMES, AROCLOR 1254, Method: PREINCUBATION): inactive; negative
mutagenic call (Test System: AMES SALMONELLA TYPHIMURIUM, Strain/Indicator: TA104, Metabolic Activation: RAT, LIVER, CYTOSOL, AROCLOR 1254, Method: PREINCUBATION): inactive; negative
mutagenic call (Test System: AMES SALMONELLA TYPHIMURIUM, Strain/Indicator: TA104, Metabolic Activation: RAT, LIVER, MICROSOMES, AROCLOR 1254, NADPH, Method: PREINCUBATION): inactive; negative
mutagenic call (Test System: AMES SALMONELLA TYPHIMURIUM, Strain/Indicator: TA1535, Metabolic Activation: NONE, Method: PREINCUBATION): inactive; negative
mutagenic call (Test System: AMES SALMONELLA TYPHIMURIUM, Strain/Indicator: TA1535, Metabolic Activation: RAT, LIVER, S-9, AROCLOR 1254, Method: PREINCUBATION): inactive; negative
mutagenic call (Test System: AMES SALMONELLA TYPHIMURIUM, Strain/Indicator: TA1537, Metabolic Activation: NONE, Method: PREINCUBATION): active; positive
mutagenic call (Test System: AMES SALMONELLA TYPHIMURIUM, Strain/Indicator: TA1537, Metabolic Activation: RAT, LIVER, S-9, AROCLOR 1254, Method: PREINCUBATION): inactive; negative

CCC[CH2][Sn]([Cl])([CH2]CCC)[CH2]CCC
mutagenic call (Test System: AMES SALMONELLA TYPHIMURIUM, Strain/Indicator: TA98, Metabolic Activation: NONE, Method: SUSPENSION/PLATE): inactive; negative
mutagenic call (Test System: AMES SALMONELLA TYPHIMURIUM, Strain/Indicator: TA100, Metabolic Activation: NONE, Method: SUSPENSION/PLATE): active; positive

C/C=C/C=C/CCCCCCCO
mutagenic call [1]: inactive; negative
mutagenic call (Test System: AMES SALMONELLA TYPHIMURIUM, Strain/Indicator: TA98, Metabolic Activation: RAT, LIVER, S-9, Method: STANDARD PLATE): inactive; negative
mutagenic call [2]: inactive; negative
mutagenic call (Test System: AMES SALMONELLA TYPHIMURIUM, Strain/Indicator: TA100, Metabolic Activation: RAT, LIVER, S-9, Method: STANDARD PLATE): inactive; negative
mutagenic call (Test System: AMES SALMONELLA TYPHIMURIUM, Strain/Indicator: TA102, Metabolic Activation: NONE, Method: STANDARD PLATE): inactive; negative
mutagenic call (Test System: AMES SALMONELLA TYPHIMURIUM, Strain/Indicator: TA102, Metabolic Activation: RAT, LIVER, S-9, Method: STANDARD PLATE): inactive; negative

O=[N+]([O-])c1c(Cl)c(Cl)c2c(c1Cl)Oc1cc(Cl)c(Cl)cc1O2
mutagenic call [1]: active; positive
mutagenic call (Test System: AMES SALMONELLA TYPHIMURIUM, Strain/Indicator: TA98, Metabolic Activation: RAT, LIVER, S-9, AROCLOR, Method: STANDARD PLATE): active; positive
mutagenic call [2]: inactive; negative
mutagenic call (Test System: AMES SALMONELLA TYPHIMURIUM, Strain/Indicator: TA100, Metabolic Activation: RAT, LIVER, S-9, AROCLOR, Method: STANDARD PLATE): active; positive

COc1cccc2c1C(=O)c1c(O)c3c(c(O)c1C2=O)CC(O)(C(C)=O)CC3OC1CC(N2CCOCC2C#N)C(O)C(C)O1 (stereo unspecified)
mutagenic call (Test System: AMES SALMONELLA TYPHIMURIUM, Strain/Indicator: TA98, Metabolic Activation: NONE): inactive; negative
mutagenic call (Test System: AMES SALMONELLA TYPHIMURIUM, Strain/Indicator: TA98, Metabolic Activation: RAT, LIVER, S-9, AROCLOR 1254): active; positive
mutagenic call (Test System: CHINESE HAMSTER V-79, Strain/Indicator: V-79/8-AZAGUANINE, Metabolic Activation: NONE): active; positive
mutagenic call (Test System: CHINESE HAMSTER V-79, Strain/Indicator: V-79/8-AZAGUANINE, Metabolic Activation: RAT, HEPATOCYTES): inactive; negative
mutagenic call (Test System: UDS RAT HEPATOCYTES, Strain/Indicator: THY INCORP, Metabolic Activation: NONE, Method: AUTOMATIC COLONY COUNTER): active; positive

Nc1nc(-c2cccnc2)cs1
mutagenic call (Test System: AMES SALMONELLA TYPHIMURIUM, Strain/Indicator: TA1538, Metabolic Activation: RAT, LIVER, S-9, AROCLOR 1254, Method: STANDARD PLATE): inactive; negative
